For 27 molecules, IC50 results are on record in the Kinase Knowledgebase extract (Sharma et al. 2016).

For the experiment, the target named is MAPK14 (human) (UniProt Q16539). In words: Assessment of MAPK14 Kinase Activity.
Chain of MAPK14 (human) (Q16539 whole entry, looked up): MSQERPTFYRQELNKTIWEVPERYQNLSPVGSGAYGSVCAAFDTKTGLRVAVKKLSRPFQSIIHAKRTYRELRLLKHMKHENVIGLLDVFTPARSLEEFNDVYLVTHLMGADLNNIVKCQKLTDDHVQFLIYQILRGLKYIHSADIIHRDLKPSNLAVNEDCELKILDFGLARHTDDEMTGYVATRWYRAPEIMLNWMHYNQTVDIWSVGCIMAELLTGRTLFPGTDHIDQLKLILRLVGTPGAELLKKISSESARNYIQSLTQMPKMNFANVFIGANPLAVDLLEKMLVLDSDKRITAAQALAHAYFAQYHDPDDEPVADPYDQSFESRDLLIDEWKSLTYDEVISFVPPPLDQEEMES
As usually defined, the IC50 is the concentration that inhibits the measured activity by half. Lower therefore signals inhibition by little substance. As to `CONC(=O)c1ccc(C)c(-n2ncc(C(=O)c3cccc(I)c3)c2N)c1`, the IC50 is < 1000 nM.

For `Cc1ccc(C(=O)NC2CC2)cc1-n1ncc(C(=O)c2cccc(CO)c2)c1N`, the IC50 is < 1000 nM.

Regarding `Cc1ccc(C(=O)NC2CC2)cc1-n1ncc(C(=O)NC2CCCCC2C)c1N` (configuration not stated), the IC50 was < 1000 nM.

For the molecule `CCOC(=O)c1c(C)nn(-c2cc(C(=O)NC3CC3)ccc2C)c1N`, the IC50 was < 1000 nM.

In the case of `Cc1ccc(C(=O)NC2CC2)cc1-n1ncc(C(=O)c2cccc(C#N)c2)c1N`, the IC50 was < 1000 nM.

In the case of `CONC(=O)c1ccc(C)c(-n2ncc(C(=O)c3ccccc3)c2N)c1`, the IC50 is < 1000 nM.

Regarding `Cc1ccc(C(=O)NC2CC2)cc1-n1ncc(C(=O)c2cccc(C3OCCO3)c2)c1N`, the IC50 is < 1000 nM.

Regarding `Cc1ccc(C(=O)NC2CC2)cc1-n1ncc(C(=O)c2cccc(-c3nnco3)c2)c1N`, the IC50 is < 1000 nM.

Turning to `Cc1ccc(C(=O)NC2CC2)cc1-n1cnc(C(=O)C2CCCCC2)c1N`, the IC50 was < 1000 nM.

Turning to `CCOC(=O)c1c(OCC(=O)NCc2cccc(Cl)c2)nn(-c2cc(C(=O)NC3CC3)ccc2C)c1N`, the IC50 was < 1000 nM.

With `COc1nn(-c2cc(C(=O)NC3CC3)ccc2C)c(N)c1C(=O)c1ccccc1`, the IC50 is < 1000 nM.

As to `Cc1ccc(C(=O)NC2CC2)cc1-n1nc(OCCOCc2ccccc2)c(C(=O)c2ccccc2)c1N`, the IC50 was < 1000 nM.

With `Cc1ccc(C(=O)NC2CC2)cc1-n1ncc(C(=O)c2cccc(I)c2)c1N`, the IC50 was < 1000 nM.

As for `Cc1ccc(C(=O)NC2CC2)cc1-n1ncc(C(=O)c2cccc(OCC(O)CO)c2)c1N` (configuration not stated), the IC50 was < 1000 nM.

As for `CCOC(=O)c1cnn(-c2cc(C(=O)NC3CC3)ccc2C)c1N`, the IC50 is < 1000 nM.

As for `Cc1ccc(C(=O)O)cc1-n1ncc(C(=O)c2cccc(I)c2)c1N`, the IC50 lay within 1000 to 10000 nM.

As to `Cc1ccc(C(=O)NC2CC2)cc1-n1cnc(C(=O)c2ccc3c(c2)OCO3)c1N`, the IC50 is < 1000 nM.

In the case of `Cc1ccc(C(=O)NC2CC2)cc1-n1ncc(C(=O)Nc2ccccc2)c1N`, the IC50 was < 1000 nM.

With `Cc1ccc(C(=O)NC2CC2)cc1-n1ncc(C(=O)NCC(C)(C)C)c1N`, the IC50 is < 1000 nM.

Take `Cc1ccc(C(=O)NC2CC2)cc1-n1cnc(C(=O)c2ccccn2)c1N`: the IC50 was < 1000 nM.

On to `Cc1ccc(C(=O)NC2CC2)cc1-n1ncc(C(=O)c2cccc(C=O)c2)c1N`, for which the IC50 was < 1000 nM.

Consider `Cc1ccc(C(=O)O)cc1-n1ncc(C(=O)c2ccccc2)c1N`, for which the IC50 is 1000 to 10000 nM.

As to `Cc1ccc(C(=O)NC2CC2)cc1-n1ncc(C(=O)c2ccccc2)c1N`, the IC50 was < 1000 nM.

For the molecule `Cc1ccc(C(=O)NC2CC2)cc1-n1ncc(C(=O)NC2CCc3ccccc32)c1N` (configuration not stated), the IC50 is < 1000 nM.

In the case of `Cc1ccc(C(=O)NC2CC2)cc1-n1nc(OC2CCN(C(=O)OC(C)(C)C)CC2)c(C(=O)c2ccccc2)c1N`, the IC50 is < 1000 nM.

Regarding `Cc1ccc(C(=O)NC2CC2)cc1-n1cnc(C(=O)C2CCOCC2)c1N`, the IC50 is < 1000 nM.

Consider `Cc1ccc(-c2nnc[nH]2)cc1-n1ncc(C(=O)c2ccccc2)c1N`, for which the IC50 was < 1000 nM.
